Source: PubChem BioAssay (NCI)
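A five-concentration, 48-hour dose response in 96-well plates underlies each endpoint, interpolated linearly between surrounding concentrations. GI50 is the concentration that inhibits growth by half. TGI denotes the concentration required for complete inhibition of growth.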

How the values were obtained:
Assay in all cases: DTP human tumour cell line panel, 48 h; in the data active = GI50 below about 0.43 µM; inactive = the rest
[1] = tested on: 786-0 renal
[2] = tested on: A498 renal
[3] = tested on: A549 NSCLC
[4] = tested on: ACHN renal
[5] = tested on: BT-549 breast
[6] = tested on: CAKI-1 renal
[7] = tested on: CCRF-CEM leukemia
[8] = tested on: COLO 205 colon
[9] = tested on: DU-145 prostate
[10] = tested on: EKVX NSCLC
[11] = tested on: HCT-116 colon
[12] = tested on: HCT-15 colon
[13] = tested on: HL-60(TB) leukemia
[14] = tested on: HOP-62 NSCLC
[15] = tested on: HOP-92 NSCLC
[16] = tested on: HS 578T breast
[17] = tested on: HT29 colon
[18] = tested on: IGROV1 ovarian
[19] = tested on: K-562 leukemia
[20] = tested on: KM12 colon
[21] = tested on: LOX IMVI melanoma
[22] = tested on: M14 melanoma
[23] = tested on: MALME-3M melanoma
[24] = tested on: MCF7 breast
[25] = tested on: MDA-MB-231 breast
[26] = tested on: MDA-MB-435
[27] = tested on: MOLT-4 leukemia
[28] = tested on: NCI-H226 lung
[29] = tested on: NCI-H23 lung
[30] = tested on: NCI-H460 lung
[31] = tested on: NCI-H522 lung
[32] = tested on: NCI/ADR-RES ovarian
[33] = tested on: OVCAR-3 ovarian
[34] = tested on: OVCAR-4 ovarian
[35] = tested on: OVCAR-5 ovarian
[36] = tested on: OVCAR-8 ovarian
[37] = tested on: PC-3 prostate
[38] = tested on: RPMI-8226 leukemia
[39] = tested on: RXF 393 renal
[40] = tested on: SF-268 CNS
[41] = tested on: SF-295 CNS
[42] = tested on: SF-539 CNS
[43] = tested on: SK-MEL-2 melanoma
[44] = tested on: SK-MEL-28 melanoma
[45] = tested on: SK-MEL-5 melanoma
[46] = tested on: SK-OV-3 ovarian
[47] = tested on: SN12C renal
[48] = tested on: SNB-19 CNS
[49] = tested on: SNB-75 CNS
[50] = tested on: SR leukemia
[51] = tested on: SW-620 colon
[52] = tested on: T-47D breast
[53] = tested on: TK-10 renal
[54] = tested on: U251 CNS
[55] = tested on: UACC-257 melanoma
[56] = tested on: UACC-62 melanoma
[57] = tested on: UO-31 renal
[58] = tested on: HCC-2998 colon

O=C1/C(=C\c2ccc(Cl)cc2)CCOc2c1ccc1ccccc21
63.6 µM: TGI [14] | TGI [39]
49.6 µM: TGI [47]
72 µM: TGI [17]
27.1 µM: TGI [28]
61.7 µM: TGI [9]
61.8 µM: TGI [2]
63.4 µM: TGI [15]
42.9 µM: TGI [4]
50.1 µM: TGI [8]
76.4 µM: TGI [30]
62.4 µM: TGI [12]
47 µM: TGI [5] | TGI [56]
inactive: GI50 [1] 24 µM | GI50 [2] 36.4 µM | GI50 [3] 42.8 µM | GI50 [4] 20.4 µM | GI50 [5] 18.8 µM | GI50 [6] 31.7 µM | GI50 [7] 28.8 µM | GI50 [8] 22 µM | GI50 [9] 19.7 µM | GI50 [10] 16.7 µM | GI50 [11] 35 µM | GI50 [12] 14.9 µM | GI50 [13] 46.4 µM | GI50 [14] 25.8 µM | GI50 [15] 17.8 µM | GI50 [16] 46.5 µM | GI50 [17] 22.6 µM | GI50 [18] 55.3 µM | GI50 [19] 22.5 µM | GI50 [20] 31.8 µM | GI50 [21] 18.6 µM | GI50 [22] 36.3 µM | GI50 [23] 25.9 µM | GI50 [24] 19.4 µM | GI50 [25] 18.6 µM | GI50 [26] 23.2 µM | GI50 [27] 11.7 µM | GI50 [28] 11.2 µM | GI50 [29] 21.6 µM | GI50 [30] 21.4 µM | GI50 [31] 30.1 µM | GI50 [32] 19.6 µM | GI50 [33] 39.4 µM | GI50 [34] 36.7 µM | GI50 [35] 26.1 µM | GI50 [36] 28.1 µM | GI50 [37] 43.5 µM | GI50 [38] 14 µM | GI50 [39] 22.4 µM | GI50 [40] 24.2 µM | GI50 [41] 33.5 µM | GI50 [42] 12.2 µM | GI50 [43] 87.5 µM | GI50 [44] 19 µM | GI50 [45] 20.6 µM | GI50 [46] 42.6 µM | GI50 [47] 18.5 µM | GI50 [48] 23.9 µM | GI50 [49] 34.6 µM | GI50 [50] 11.9 µM | GI50 [51] 38.5 µM | GI50 [52] 19 µM | GI50 [53] 27.6 µM | GI50 [54] 20.3 µM | GI50 [55] 29.8 µM | GI50 [56] 18.7 µM | GI50 [57] 35.4 µM
42.2 µM: TGI [52]
87.6 µM: TGI [33]
47.6 µM: TGI [10]
55.5 µM: TGI [38]
58.6 µM: TGI [54]
66 µM: TGI [6]
56.7 µM: TGI [29]
83.3 µM: TGI [55]
29.9 µM: TGI [42]
45.8 µM: TGI [45]
83.9 µM: TGI [40]
57 µM: TGI [25]
55.7 µM: TGI [1]
57.9 µM: TGI [23]
38.2 µM: TGI [44]
72.3 µM: TGI [48] | TGI [53]
78.8 µM: TGI [35]
> 100 µM: TGI [3] | TGI [7] | TGI [11] | TGI [13] | TGI [16] | TGI [18] | TGI [19] | TGI [20] | TGI [22] | TGI [24] | TGI [26] | TGI [27] | TGI [31] | TGI [34] | TGI [36] | TGI [37] | TGI [41] | TGI [43] | TGI [46] | TGI [49] | TGI [50] | TGI [51] | TGI [57]
42.3 µM: TGI [21]
62.8 µM: TGI [32]

CC(=O)N1C(Nc2ccccc2)CCN1c1ccccc1 (stereo not drawn)
> 10 µM: TGI [1] | TGI [3] | TGI [4] | TGI [5] | TGI [6] | TGI [7] | TGI [8] | TGI [9] | TGI [10] | TGI [58] | TGI [11] | TGI [12] | TGI [13] | TGI [14] | TGI [15] | TGI [16] | TGI [17] | TGI [18] | TGI [19] | TGI [21] | TGI [22] | TGI [23] | TGI [24] | TGI [25] | TGI [26] | TGI [27] | TGI [28] | TGI [29] | TGI [30] | TGI [31] | TGI [32] | TGI [33] | TGI [34] | TGI [35] | TGI [36] | TGI [37] | TGI [38] | TGI [39] | TGI [40] | TGI [41] | TGI [42] | TGI [43] | TGI [44] | TGI [45] | TGI [46] | TGI [47] | TGI [48] | TGI [49] | TGI [50] | TGI [51] | TGI [52] | TGI [53] | TGI [55] | TGI [57]
